Measured values: paper PMC7704495 (Pharmacological Reports, 2020)

What was measured:
CYP1A2 [1] = biological target: T1, CYP1A2 (Homo sapiens, UniProt P05177); assay: CYP1A2 inhibition, caffeine 3-N-demethylation in pooled human liver microsomes; assay type: in vitro ADME; settings: for type of inhibition: Lineweaver–Burk; for Ki: caffeine 3-N-demethylation
T1 construct: purchased Corning (Woburn, USA); host or cells: baculovirus-infected insect cells
T1 sequence (P05177 1-516): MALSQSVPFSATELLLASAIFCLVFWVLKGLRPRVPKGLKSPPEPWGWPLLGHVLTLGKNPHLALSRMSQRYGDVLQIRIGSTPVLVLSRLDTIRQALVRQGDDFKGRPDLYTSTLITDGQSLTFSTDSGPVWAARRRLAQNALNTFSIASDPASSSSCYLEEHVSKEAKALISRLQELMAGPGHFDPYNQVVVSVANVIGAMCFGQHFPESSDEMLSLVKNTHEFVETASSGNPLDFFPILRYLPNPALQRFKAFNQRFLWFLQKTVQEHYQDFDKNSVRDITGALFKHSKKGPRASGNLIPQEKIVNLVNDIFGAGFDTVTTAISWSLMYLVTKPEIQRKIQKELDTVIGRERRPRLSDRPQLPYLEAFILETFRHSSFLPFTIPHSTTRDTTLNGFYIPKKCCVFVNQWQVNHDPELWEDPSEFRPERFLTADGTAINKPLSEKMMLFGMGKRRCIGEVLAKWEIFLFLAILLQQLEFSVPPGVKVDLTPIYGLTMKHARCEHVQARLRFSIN
Experimental: (§1) The following probe reactions were applied, according to the methods previously described: caffeine 3-N-demethylation for CYP1A2 (caffeine 200, 400 and 800 µM), diclofenac 4′-hydroxylation for CYP2C9 (diclofenac 5, 10, 25 µM), perazine N-demethylation for CYP2C19 (perazine 50, 100, 200 µM), bufuralol 1′-hydroxylation for CYP2D6 (bufuralol 10, 25, 50 µM), and testosterone 6β-hydroxylation for CYP3A4 (50, 100 and 200 µM). Incubation systems for CYP2C9, 2C19 and 3A4 contained: 50 mM TRIS/KCL buffer (pH = 7.4), NADPH generating system (1 mM NADP, 5 mM glucose 6-phosphate, 1.7 U/ml glucose 6-phosphate dehydrogenase, 1 mM EDTA and 3 mM MgCl2). Incubation mixture for CYP1A2 included: 0.15 M phosphate buffer (pH = 7.4) and 1 mM NADPH, and for CYP2D6: 0.1 M TRIS/KCL buffer (pH = 7.4), NADPH generating system (1.3 mM NADP, 3.3 mM glucose 6-phosphate, 1 U/ml glucose 6-phosphate dehydrogenase and 3.3 mM MgCl2). The appropriate concentrations of human liver microsomes (0.5 mg/ml for each reaction) or supersomes (50 pmol CYP/ml), various concentrations of a probe substrate in the absence or presence of neuroleptic (concentrations: 0.1, 0.5, 1, 5, 10 µM) were added, The final volume of the reaction mixture was 0.5 ml. The incubation time for supersomes was 30 min (for each reaction) and for liver microsomes: 30 min (diclofenac 4′-hydroxylation and bufuralol 1′-hydroxylation), 20 min (perazine N-demethylation and testosterone 6β-hydroxylation) or 50 min (caffeine 3-N-demethylation). After the reactions had been stopped, the concentrations of specific substrates and their metabolites formed in liver microsomes or supersomes were assessed by the HPLC method with UV detection (or fluorimetric detection for CYP2D6), as described previously.
(§2) Kinetic parameters (Km, Vmax, Ki) describing the course of CYP-specific reactions in liver microsomes or supersomes were obtained using the Michaelis–Menten approach and a non-linear regression analysis (Program Sigma Plot 12.3 Enzyme Kinetics).

CYP1A2 [2] = biological target: T1, CYP1A2; assay: CYP1A2 inhibition, caffeine 3-N-demethylation in cDNA-expressed CYP1A2 (supersomes); assay type: in vitro ADME; settings: for type of inhibition: Lineweaver–Burk; for Ki: caffeine 3-N-demethylation
Experimental: as §1, §2

CYP2C9 [3] = biological target: T2, CYP2C9 (Homo sapiens, UniProt P11712); assay: CYP2C9 inhibition, diclofenac 4′-hydroxylation in pooled human liver microsomes; assay type: in vitro ADME; settings: for type of inhibition: Lineweaver–Burk
T2 construct: purchased Corning (Woburn, USA); host or cells: baculovirus-infected insect cells
T2 sequence (P11712 whole entry): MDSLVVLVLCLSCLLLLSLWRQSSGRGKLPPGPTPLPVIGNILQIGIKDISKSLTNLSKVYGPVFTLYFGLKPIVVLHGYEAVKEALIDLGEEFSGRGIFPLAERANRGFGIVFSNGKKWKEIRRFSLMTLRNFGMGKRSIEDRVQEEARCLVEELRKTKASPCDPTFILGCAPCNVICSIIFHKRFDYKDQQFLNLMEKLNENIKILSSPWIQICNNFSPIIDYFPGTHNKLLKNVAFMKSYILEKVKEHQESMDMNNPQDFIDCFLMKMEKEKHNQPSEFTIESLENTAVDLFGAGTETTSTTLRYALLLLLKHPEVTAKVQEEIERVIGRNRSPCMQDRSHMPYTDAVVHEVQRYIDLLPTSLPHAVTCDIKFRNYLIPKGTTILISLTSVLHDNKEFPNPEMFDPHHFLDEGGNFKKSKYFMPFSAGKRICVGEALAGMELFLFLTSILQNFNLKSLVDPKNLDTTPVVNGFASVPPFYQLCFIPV
Experimental: as §1, §2

CYP2C9 [4] = biological target: T2, CYP2C9; assay: CYP2C9 inhibition, diclofenac 4′-hydroxylation in cDNA-expressed CYP2C9 (supersomes); assay type: in vitro ADME; settings: for type of inhibition: Lineweaver–Burk
Experimental: as §1, §2

CYP2C19 [5] = biological target: T3, CYP2C19 (Homo sapiens, UniProt P33261); assay: CYP2C19 inhibition, perazine N-demethylation in cDNA-expressed CYP2C19 (supersomes); assay type: in vitro ADME; settings: for type of inhibition: Lineweaver–Burk; for Ki: perazine N-demethylation
T3 sequence (P33261 whole entry): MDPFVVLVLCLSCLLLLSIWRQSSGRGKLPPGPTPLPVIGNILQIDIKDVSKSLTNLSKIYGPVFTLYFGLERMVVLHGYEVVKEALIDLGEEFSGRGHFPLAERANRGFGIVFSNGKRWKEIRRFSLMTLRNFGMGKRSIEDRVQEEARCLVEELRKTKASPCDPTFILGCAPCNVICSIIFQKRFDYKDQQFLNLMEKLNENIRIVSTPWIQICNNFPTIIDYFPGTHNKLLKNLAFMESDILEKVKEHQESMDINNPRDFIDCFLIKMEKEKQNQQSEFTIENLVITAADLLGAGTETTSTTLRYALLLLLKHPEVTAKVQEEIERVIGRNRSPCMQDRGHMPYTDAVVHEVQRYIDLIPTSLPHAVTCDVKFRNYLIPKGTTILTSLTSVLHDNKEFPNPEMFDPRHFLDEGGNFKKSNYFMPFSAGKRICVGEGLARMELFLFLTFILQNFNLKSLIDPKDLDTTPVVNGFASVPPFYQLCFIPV
Experimental: as §1, §2

CYP2D6 [6] = biological target: T4, CYP2D6 (Homo sapiens, UniProt P10635); assay: CYP2D6 inhibition, bufuralol 1′-hydroxylation in cDNA-expressed CYP2D6 (supersomes); assay type: in vitro ADME; settings: for type of inhibition: Lineweaver–Burk; for Ki: bufuralol 1′-hydroxylation
T4 sequence (P10635 whole entry): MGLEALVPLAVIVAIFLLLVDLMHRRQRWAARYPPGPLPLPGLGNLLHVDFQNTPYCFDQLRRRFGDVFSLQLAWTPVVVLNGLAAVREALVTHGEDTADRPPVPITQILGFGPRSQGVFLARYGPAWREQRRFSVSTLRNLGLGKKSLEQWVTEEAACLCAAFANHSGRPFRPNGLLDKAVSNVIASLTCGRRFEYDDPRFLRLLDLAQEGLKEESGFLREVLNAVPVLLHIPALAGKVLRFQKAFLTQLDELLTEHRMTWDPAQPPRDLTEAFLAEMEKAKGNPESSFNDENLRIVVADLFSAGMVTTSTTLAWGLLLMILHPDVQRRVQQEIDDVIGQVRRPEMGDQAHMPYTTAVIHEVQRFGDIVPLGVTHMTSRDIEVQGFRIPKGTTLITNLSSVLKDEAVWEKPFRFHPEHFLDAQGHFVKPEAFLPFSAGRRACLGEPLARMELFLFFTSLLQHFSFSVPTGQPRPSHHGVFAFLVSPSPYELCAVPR
Experimental: as §1, §2

CYP3A4 [7] = biological target: T5, CYP3A4 (Homo sapiens, UniProt P08684); assay: CYP3A4 inhibition, testosterone 6β-hydroxylation in pooled human liver microsomes
T5 sequence (P08684 whole entry): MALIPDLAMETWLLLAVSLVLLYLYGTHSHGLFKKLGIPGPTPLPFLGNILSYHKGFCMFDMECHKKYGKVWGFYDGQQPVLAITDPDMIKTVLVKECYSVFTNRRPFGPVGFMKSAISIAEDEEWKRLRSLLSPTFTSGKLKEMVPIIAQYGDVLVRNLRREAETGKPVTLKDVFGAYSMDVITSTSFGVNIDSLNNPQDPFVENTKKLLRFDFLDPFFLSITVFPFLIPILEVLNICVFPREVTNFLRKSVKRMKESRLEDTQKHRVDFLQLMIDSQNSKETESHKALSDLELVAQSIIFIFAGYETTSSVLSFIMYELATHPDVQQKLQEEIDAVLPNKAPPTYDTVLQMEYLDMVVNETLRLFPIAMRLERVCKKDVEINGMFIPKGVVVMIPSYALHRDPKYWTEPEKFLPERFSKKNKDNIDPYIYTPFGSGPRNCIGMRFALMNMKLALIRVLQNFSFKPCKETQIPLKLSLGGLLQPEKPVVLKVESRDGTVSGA
Experimental: as §1, §2

CYP3A4 [8] = biological target: T5, CYP3A4; assay: CYP3A4 inhibition, testosterone 6β-hydroxylation in cDNA-expressed CYP3A4 (supersomes)
Experimental: as §1, §2

[9] = patients; cited from earlier work
[10] = lipophilicity; cited from earlier work
CYP2C19 [11] = biological target: T3, CYP2C19; assay: CYP2C19 inhibition, perazine N-demethylation in pooled human liver microsomes; assay type: in vitro ADME; design: a Human liver microsomes; tissue Corning (Woburn, USA); host or cells: pooled human liver microsomes; settings: for type of inhibition: Lineweaver–Burk; for Ki: perazine N-demethylation
Experimental: as §1, §2

CYP2D6 [12] = biological target: T4, CYP2D6; assay: CYP2D6 inhibition, bufuralol 1′-hydroxylation in pooled human liver microsomes; assay type: in vitro ADME; design: a Human liver microsomes; tissue Corning (Woburn, USA); host or cells: pooled human liver microsomes; settings: for type of inhibition: Lineweaver–Burk; for Ki: bufuralol 1′-hydroxylation
Experimental: as §1, §2

Row | SMILES | type of inhibition (CYP1A2 [1]) | Ki (CYP1A2 [1]) | type of inhibition (CYP1A2 [2]) | Ki (CYP1A2 [2]) | type of inhibition (CYP2C19 [5]) | Ki (CYP2C19 [5]) | type of inhibition (CYP2D6 [6]) | Ki (CYP2D6 [6]) | type of inhibition (CYP3A4 [7]) | type of inhibition (CYP3A4 [7]; human, 20 min, pH 7.4) | type of inhibition (CYP3A4 [8]) | type of inhibition (CYP3A4 [8]; human, 30 min, pH 7.4) | therapeutic plasma concentration [9] | log P [10] | type of inhibition (CYP2C19 [11]) | Ki (CYP2C19 [11]) | type of inhibition (CYP2D6 [12]) | Ki (CYP2D6 [12]) | other results
1 | COc1cc(C(C)=O)ccc1OCCCN1CCC(c2noc3cc(F)ccc23)CC1 [Iloperidone, iloperidone] | Mixed | 45 µM | Mixed | 31 µM | Mixed | 32 µM | Competitive | 10 µM | noncompetitive | Noncompetitive | noncompetitive | Noncompetitive | up to 0.2 μM | 4.43 | Mixed | 6.5 µM | Competitive | 2.9 µM | type of inhibition (CYP1A2 [1]; listed as iloperidone): mixed; type of inhibition (CYP1A2 [2]; listed as iloperidone): mixed; Ki at 30 min (CYP2C9 [3]; human, pooled human liver microsomes, pH 7.4, probe diclofenac (4′-hydroxylation), CYP2C9, liver microsomes, diclofenac 4′-hydroxylation): > 10 µM; effect on the activity of CYP2C9 (CYP2C9 [3]; liver microsomes, neuroleptic 0.1-10 µM): did not affect; Ki at 30 min (CYP2C9 [4]; human, pH 7.4, probe diclofenac (4′-hydroxylation), CYP2C9, supersomes, diclofenac 4′-hydroxylation): > 10 µM; effect on the activity of CYP2C9 (CYP2C9 [4]; supersomes, neuroleptic 0.1-10 µM): did not affect; type of inhibition (CYP2C19 [5]; listed as iloperidone): mixed; type of inhibition (CYP2D6 [6]; listed as iloperidone): competitive; type of inhibition (CYP2C19 [11]; listed as iloperidone): mixed; type of inhibition (CYP2D6 [12]; listed as iloperidone): competitive
2 | O=C1[C@@H]2[C@H]3CC[C@H](C3)[C@@H]2C(=O)N1C[C@@H]1CCCC[C@H]1CN1CCN(c2nsc3ccccc23)CC1 [Lurasidone, lurasidone] | Mixed | 12.6 µM | Mixed | 15.5 µM | Mixed | 18.4 µM | Competitive | 85 µM | competitive | Competitive | competitive | Competitive | ≤ 1.2 µM | 5.6 | Mixed | 18 µM | Competitive | 37.5 µM | type of inhibition (CYP1A2 [1]; listed as lurasidone): mixed; type of inhibition (CYP1A2 [2]; listed as lurasidone): mixed; type of inhibition (CYP2C9 [3]; CYP2C9, liver microsomes): Mixed; type of inhibition (CYP2C9 [3]; CYP2C9, liver microsomes, listed as lurasidone): mixed; Ki (CYP2C9 [3]; CYP2C9, liver microsomes, diclofenac 4′-hydroxylation): 18 µM; type of inhibition (CYP2C9 [4]; CYP2C9, supersomes): Mixed; type of inhibition (CYP2C9 [4]; CYP2C9, supersomes, listed as lurasidone): mixed; Ki (CYP2C9 [4]; CYP2C9, supersomes, diclofenac 4′-hydroxylation): 3.5 µM; type of inhibition (CYP2C19 [5]; listed as lurasidone): mixed; type of inhibition (CYP2D6 [6]; listed as lurasidone): competitive; Ki (CYP3A4 [7]): 29.4 µM; Ki (CYP3A4 [8]): 9.1 µM; type of inhibition (CYP2C19 [11]; listed as lurasidone): mixed; type of inhibition (CYP2D6 [12]; listed as lurasidone): competitive
